The term melting point denotes the temperature of the solid-liquid transition.

As for `C=CCn1c(N)c(C(N)=S)sc1=S`, the melting point lay in the range of 195 to 197 °C.

In the case of `Fc1ccc2c(C3CCNCC3)c[nH]c2c1`, the melting point is 225 to 227 °C.

In turn, `CN(C)C(=O)Cn1cc(Br)cn1` yielded a melting point of 163 to 165 °C.

With `Cc1cc(C)c2cc(C(=O)O)sc2n1`, the melting point lay within 198 to 200 °C.

As to `NC(CC(=O)O)c1ccc(-c2ccccc2)cc1` (stereo not drawn), the melting point lay within 238 to 240 °C.

`Nc1ncc(C=NO)s1` showed a melting point of 211 to 213 °C.

On to `Cn1cccc1C(=O)NC1CCNCC1`, for which the melting point lay in the range of 195 to 197 °C.

In turn, `Oc1nc(-c2ccccc2Cl)no1` returned a melting point of 161 to 163 °C.

`CN(C)CC(O)C(F)(F)F` (stereo not drawn) had a melting point of 63 to 65 °C.

In the case of `O=Cc1cnc(N2CCOCC2)nc1`, the melting point was in the range of 147 to 149 °C.

Regarding `O=C(O)c1sc(-c2ccccc2)nc1C(F)F`, the melting point is 179 to 181 °C.

For the compound `Cn1cc(C=O)c(=O)n(C)c1=O`, the melting point was 121 to 123 °C.

The compound `COC(=O)c1cc2ccc(C)cc2[nH]1` showed a melting point of 131 to 133 °C.

In turn, `ClCc1nnnn1-c1ccccc1` displayed a melting point of 45 to 73 °C.

In turn, `O=C(O)c1nnn(-c2cccc(Br)c2)c1C(F)(F)F` came in with a melting point of 154 to 156 °C.

For the compound `CCOC(=O)c1cnn(-c2cccc(N)c2)c1C(F)(F)F`, the melting point was 87 to 89 °C.

As to `O=C(O)C1=C(c2ccccc2)N2CCS(=O)(=O)N=C2S1`, the melting point lay in the range of 244 to 246 °C.

The compound `O=C(O)CSc1nccn1-c1cccc(F)c1` came in with a melting point of 140 to 142 °C.

The compound `CC1CC(=O)c2c(O)ccc(Cl)c21` (stereo not drawn) returned a melting point of 55 to 57 °C.

As for `O=S(=O)(Cl)c1ccc(OCC(F)F)c2ccccc12`, the melting point was 115 to 117 °C.

`CN1CCN(S(=O)(=O)c2ccc(C(=O)NN)cc2)CC1` displayed a melting point of 170 to 172 °C.

In the case of `CCCOc1ccc(/C=C/C(=O)O)cc1`, the melting point was in the range of 179 to 181 °C.

The compound `N#Cc1cnn(-c2ncccn2)c1N` yielded a melting point of 320 to 322 °C.

In turn, `CS(=O)(=O)c1cccc(NN)c1` showed a melting point of 93 to 95 °C.

As to `Cn1cnc2cc(C#N)ccc21`, the melting point was in the range of 139 to 141 °C.

`O=C1CC(=Cc2ccc(F)cc2)C(=O)N1` showed a melting point of 209 to 211 °C.

`CCS(=O)(=O)Nc1ccc(S(=O)(=O)Cl)c(C)c1` showed a melting point of 82 to 84 °C.

The compound `Cn1ccnc1C(N)=S` showed a melting point of 134 to 136 °C.

`O=C(O)c1cc2cc(Cl)c(Cl)cc2[nH]1` had a melting point of 321 to 323 °C.

In turn, `O=C(O)Cn1nc(-c2cccs2)oc1=O` yielded a melting point of 176 to 178 °C.

With `Cc1ccccc1C(=O)NC1CCNCC1`, the melting point was 129 to 131 °C.

`Cc1ccc(-n2c(SCC(=O)NN)nnc2-c2ccccc2)cc1` yielded a melting point of 90 to 92 °C.

Regarding `O=C(O)C=Cc1ccc(SC(F)(F)F)cc1`, the melting point was in the range of 212 to 214 °C.

Consider `CS(=O)(=O)Nc1ccc(O)c(C(=O)O)c1`, for which the melting point lay within 228 to 230 °C.

The compound `COc1cc(OCC(=O)O)ccc1[N+](=O)[O-]` returned a melting point of 195 to 197 °C.

In turn, `CC(C)(C)OC(=O)NC1(C(=O)O)Cc2ccccc2C1` displayed a melting point of 162 to 164 °C.

Compound `Cc1cc(C)cc(CCC(=O)O)c1` showed a melting point of 49 to 51 °C.

For the compound `NC(=O)CCc1csc(N)n1`, the melting point lay in the range of 141 to 143 °C.

The compound `COc1ccc(N)cc1NC(=O)c1ccc(Cl)cc1F` displayed a melting point of 140 to 142 °C.

The compound `Nc1nc2c(Cl)cccc2[nH]1` registered a melting point of 143 to 145 °C.

Turning to `Nc1c(Cl)cc(Cl)c2c1N=S=N2`, the melting point lay in the range of 176 to 178 °C.

Compound `CCOC(=O)c1cc2c(F)cc(Br)cc2[nH]1` returned a melting point of 194 to 196 °C.

`COCCNC(=O)C(C)Cl` (stereo not drawn): the melting point was in the range of 28 to 30 °C.

`Cn1cc([N+](=O)[O-])ccc1=O` came in with a melting point of 172 to 174 °C.

`O=C(O)c1cc2occc2s1` gave a melting point of 188 to 190 °C.

In the case of `NNc1ncnc2nc[nH]c12`, the melting point fell in the range of 235 to 237 °C.

For the compound `O=C(O)C=Cc1cscn1`, the melting point was 174 to 176 °C.

In the case of `NCc1csc(CNC(=O)c2ccccc2)n1`, the melting point fell in the range of 84 to 86 °C.

In turn, `CC(C)Nc1cccnc1` showed a melting point of 40 to 42 °C.

As to `Nc1c(C(=O)O)ccnc1Br`, the melting point lay within 224 to 226 °C.

In turn, `CSc1nc(Cl)ccc1C(=O)O` returned a melting point of 189 to 191 °C.

Take `Nc1cccc(-c2csc(N)n2)c1`: the melting point was 174 to 176 °C.

On to `Cc1cc(-c2nc3cc(F)ccc3s2)ccc1N`, for which the melting point lay in the range of 191 to 193 °C.

Turning to `O=C(NC1CC1)n1ccnc1`, the melting point was in the range of 89 to 91 °C.

Consider `CN(C)C(=O)Cn1ccc(N)n1`, for which the melting point lay within 58 to 60 °C.

`Cn1cc(S(=O)(=O)N2CCCC2)cc1C(=O)O` registered a melting point of 219 to 221 °C.

In turn, `CCOC(=O)c1cc(C2CC2)nc2onc(C(C)C)c12` showed a melting point of 48 to 50 °C.

`Cn1cc(C(=O)O)cn1` came in with a melting point of 203 to 205 °C.

Turning to `C#CCNC(=O)Nc1cccc([N+](=O)[O-])c1`, the melting point lay in the range of 173 to 175 °C.

`N#Cc1ccc(NC(=O)OCC(F)(F)F)cc1` returned a melting point of 143 to 145 °C.

In turn, `Cc1nn(C)c(C)c1NC(=O)C(C)Cl` (stereo not drawn) displayed a melting point of 120 to 122 °C.

As for `NCc1cnc(-c2ccc(C(F)(F)F)cc2)s1`, the melting point is 73 to 75 °C.

As for `O=C(O)C1CC(=O)N(c2ccc(Br)cc2)C1` (stereo not drawn), the melting point was 173 to 175 °C.

In the case of `CC(C)(CO)C(CN)c1ccccc1` (stereo not drawn), the melting point fell in the range of 116 to 118 °C.

Consider `Nc1ccccc1Cn1cccn1`, for which the melting point lay within 56 to 58 °C.

In turn, `O=[N+]([O-])c1ccc(O)c(Br)c1` had a melting point of 111 to 113 °C.

In turn, `Cc1c(C(=O)O)cnn1CC(C)C` gave a melting point of 109 to 111 °C.

`Nc1nn(C(=O)c2ccccc2Br)c2ccccc12`: the melting point was 224 to 226 °C.

In the case of `COCCNc1ccc(C(F)(F)F)cn1`, the melting point is 77 to 79 °C.

As for `Cc1cc(C)c(S(=O)(=O)NCCC(=O)O)c(C)c1`, the melting point is 118 to 120 °C.

The compound `NS(=O)(=O)N1CCCC1` displayed a melting point of 96 to 98 °C.

Compound `Cc1nc(C(=O)O)c(C)s1` yielded a melting point of 172 to 174 °C.

For `CCCCN(c1ccccc1)S(=O)(=O)c1cccc(C(=O)O)c1`, the melting point was 161 to 163 °C.

Take `CCc1[nH]nc(C(=O)O)c1[N+](=O)[O-]`: the melting point fell in the range of 149 to 151 °C.

As to `COC(=O)c1ccc2[nH]cc(C3CCNCC3)c2c1`, the melting point was in the range of 169 to 171 °C.

For `Cc1oc(-c2ccc(Cl)c(Cl)c2)nc1C(=O)O`, the melting point was 264 to 266 °C.

The compound `CSc1nn(C)c(N)c1C#N` came in with a melting point of 123 to 125 °C.

`COc1ccc(C(=O)CNC(=O)CCC(=O)O)cc1`: the melting point was 167 to 169 °C.

In turn, `O=S(=O)(c1cccc(CO)c1)N1CCOCC1` yielded a melting point of 96 to 98 °C.

Compound `Nc1cccc(OCC(=O)N2CCCC2)c1` returned a melting point of 101 to 103 °C.

The compound `COc1ccccc1NS(=O)(=O)c1ccc2oc(N)nc2c1` had a melting point of 210 to 212 °C.

On to `O=C(O)c1cc(Cl)nc(N2CCOCC2)c1`, for which the melting point was 222 to 224 °C.

Take `O=C(O)c1cc([N+](=O)[O-])cc(Cl)c1F`: the melting point was in the range of 180 to 182 °C.

On to `CC(=O)Nc1cc(S(=O)(=O)Cl)ccc1F`, for which the melting point fell in the range of 161 to 163 °C.

`CC(C)NC(=O)CN(C)CC(N)=S` displayed a melting point of 140 to 142 °C.

With `NC(=NO)c1ccc(COc2ccccc2)cc1`, the melting point lay within 143 to 145 °C.

For `O=C(CCl)c1ccc2c(c1)CCCN2C(=O)c1ccccc1`, the melting point was 178 to 180 °C.

`O=C(CCl)NC(=O)NC12CC3CC(CC(C3)C1)C2` had a melting point of 169 to 171 °C.

`CC1COc2ccccc2C1O` (stereo not drawn) had a melting point of 95 to 97 °C.

Compound `COc1ccccc1C1(C(=O)O)CC1` displayed a melting point of 131 to 133 °C.

The compound `Cc1ccccc1-n1c(S)nnc1-c1ccncc1` came in with a melting point of 280 to 282 °C.

Take `Nc1ncc(C(=O)O)cc1Cl`: the melting point fell in the range of 338 to 340 °C.

`O=C(O)c1cccnc1OCCO`: the melting point lay within 196 to 198 °C.

`CCOc1ccccc1C(=O)N1CCNCC1`: the melting point lay within 82 to 84 °C.

Consider `N#Cc1cc(N)ccc1N1CCC(O)CC1`, for which the melting point was 137 to 139 °C.

`O=C(O)Cn1ccccc1=O` yielded a melting point of 220 to 222 °C.

`O=Cc1sc(N2CCCC2)nc1Cl` yielded a melting point of 119 to 121 °C.

With `Cc1nc(O)c2c(n1)CN(Cc1ccccc1)CC2`, the melting point was 211 to 213 °C.

Take `c1cc2n(n1)CCCN2`: the melting point lay within 99 to 101 °C.

With `N#CCn1c(CCl)nc2ccccc2c1=O`, the melting point was in the range of 143 to 145 °C.

Consider `CC(C)n1cccc1C(=O)Nc1cc(Cl)ccc1C(=O)O`, for which the melting point is 226 to 228 °C.

Compound `C#CCN1CCNC1=O` registered a melting point of 119 to 121 °C.

As to `O=Cc1cc(-c2ccccc2)cs1`, the melting point was 63 to 65 °C.

The compound `O=C(c1ccc(Br)cc1)c1ccco1` came in with a melting point of 63 to 65 °C.

Turning to `Nc1nnc(SCC2COc3ccccc3O2)s1` (stereo not drawn), the melting point was 161 to 163 °C.

As to `Cc1c(C(=O)O)cccc1S(N)(=O)=O`, the melting point fell in the range of 218 to 220 °C.

`CC(C(=O)O)C(NC(=O)OC(C)(C)C)c1ccccc1` (stereo not drawn) yielded a melting point of 71 to 73 °C.

In turn, `O=C(O)CC1(CO)CC1` came in with a melting point of 68 to 70 °C.

The compound `O=C(O)C1CC2CCCCC2N1C(=O)c1ccc(F)cc1` (stereo not drawn) displayed a melting point of 147 to 149 °C.

With `Cc1cc(C=O)c(C)n1-c1cccc([N+](=O)[O-])c1`, the melting point lay within 149 to 151 °C.

As for `COC(=O)C(C)Cn1cc(Br)cn1` (stereo not drawn), the melting point was 43 to 45 °C.

On to `N#Cc1cc(F)ccc1N=C=O`, for which the melting point lay in the range of 31 to 33 °C.

In turn, `COC(=O)c1ncccc1F` returned a melting point of 81 to 83 °C.

With `CC(C)(C)c1ccc(CCCCC(=O)O)cc1`, the melting point lay within 71 to 73 °C.

Compound `CC(C)c1ccc(NCC(=O)N2CCCC2)cc1` returned a melting point of 127 to 129 °C.

As for `Fc1ccc(-c2ccc(Cl)nn2)cc1`, the melting point is 159 to 161 °C.

As to `CCOc1ccc(-c2csc(=O)[nH]2)cc1`, the melting point lay within 222 to 224 °C.

Take `CC(=O)N(C)CCCC(=O)O`: the melting point lay in the range of 98 to 100 °C.

Turning to `Cc1ccc(N)cc1S(=O)(=O)N1CCCCC1`, the melting point lay in the range of 105 to 107 °C.

The compound `Nc1cnn(-c2nccs2)c1` returned a melting point of 89 to 91 °C.

Compound `O=C(c1cc(Cl)ccn1)N1CCCCC1` showed a melting point of 60 to 62 °C.

For `Nc1nc(N)nc(CO)n1`, the melting point lay within 269 to 271 °C.

In turn, `Cc1cc([N+](=O)[O-])sc1Br` displayed a melting point of 37 to 39 °C.

Values taken from a melting point compilation (Tetko et al.).
